# Reference: patent US20240044922A1, “DEVICE AND METHODS FOR MEASURING PLATELET-FIBRIN CLOT CONTRACTION KINETICS” (University of Kentucky Research Foundation, priority 2022, published 2024)
# Test system: washed mouse platelets
# Assay: Clot contraction assay, time-lapse imaging of washed mouse platelets with thrombin, fibrinogen and CaCl2
# Assay type: cell-based
# [1] = 1 mM EGTA, thrombin 20 mU/mL, fibrinogen 250 μg/mL
smiles,measurement,setting,value
"O=C(O)CN(CCOCCOCCN(CC(=O)O)CC(=O)O)CC(=O)O [EGTA, reference compound]",AUC,[1],7.83 AU
same,Average Velocity,[1],0.51 %/min
same,Clot Contraction Extent,[1],50.72%
same,Lag time,[1],71.67 min
same,Effect on average contraction velocity,EGTA included,significantly reduced
same,Detection of the three phases of contraction,in the presence of EGTA,none of the three phases was detectible
"O=CC[C@@H](O)[C@H](O)[C@H](O)CO [2DG, 2-deoxyglucose, reference compound]",Reduction of Phase 3 rate,10 mM 2DG,~5 fold
same,AUC,"2DG 5 mM, standard conditions",6.10 AU
same,Average Velocity,"2DG 5 mM, standard conditions",0.74 %/min
same,Clot Contraction Extent,"2DG 5 mM, standard conditions",72.66%
same,Lag time,"2DG 5 mM, standard conditions",23.33 min
same,PHASE 1 % Contraction,"2DG 5 mM, standard conditions",2.68%
same,PHASE 1 Rate 1,"2DG 5 mM, standard conditions",2.00 ×10^−3 %/min
same,PHASE 1 t1,"2DG 5 mM, standard conditions",11.67 min
same,PHASE 2 % Contraction,"2DG 5 mM, standard conditions",16.98%
same,PHASE 2 Rate 2,"2DG 5 mM, standard conditions",0.88 %/min
same,PHASE 2 t2,"2DG 5 mM, standard conditions",30.33 min
same,PHASE 3 % Contraction,"2DG 5 mM, standard conditions",53%
same,PHASE 3 Rate 3,"2DG 5 mM, standard conditions",1.83 ×10^−2 %/min
same,AUC,"2DG 10 mM, standard conditions",7.44 AU
same,Average Velocity,"2DG 10 mM, standard conditions",0.51 %/min
same,Clot Contraction Extent,"2DG 10 mM, standard conditions",50.55%
same,Lag time,"2DG 10 mM, standard conditions",37.00 min
same,PHASE 1 % Contraction,"2DG 10 mM, standard conditions",5.82%
same,PHASE 1 Rate 1,"2DG 10 mM, standard conditions",3.33 ×10^−3 %/min
same,PHASE 1 t1,"2DG 10 mM, standard conditions",23.33 min
same,PHASE 2 % Contraction,"2DG 10 mM, standard conditions",13.04%
same,PHASE 2 Rate 2,"2DG 10 mM, standard conditions",0.69 %/min
same,PHASE 2 t2,"2DG 10 mM, standard conditions",44.33 min
same,PHASE 3 % Contraction,"2DG 10 mM, standard conditions",31.68%
same,PHASE 3 Rate 3,"2DG 10 mM, standard conditions",0.87 ×10^−2 %/min
same,Detection of the three phases of contraction,2DG 25 mM,none of the three phases were detectible
same,AUC,"2DG 25 mM, standard conditions",8.57 AU
same,Average Velocity,"2DG 25 mM, standard conditions",0.24 %/min
same,Clot Contraction Extent,"2DG 25 mM, standard conditions",23.45%
same,Lag time,"2DG 25 mM, standard conditions",99.00 min
same,Effect on average velocity,varying 2DG concentrations,significant inhibitory effects
same,Effect on extent of contraction,varying 2DG concentrations,significant inhibitory effects
same,Effect on lag time,varying 2DG concentrations,prolonged lag time
